Assay [1] has as its target T1, FAP-expressing human WI-38 fibroblasts (Homo sapiens, UniProt Q12884).
T1 construct: FAP-expressing human WI-38 fibroblasts (ECACC) were cultured in EMEM; host or cells: WI-38 human fibroblasts
T1 sequence (Q12884 1-760): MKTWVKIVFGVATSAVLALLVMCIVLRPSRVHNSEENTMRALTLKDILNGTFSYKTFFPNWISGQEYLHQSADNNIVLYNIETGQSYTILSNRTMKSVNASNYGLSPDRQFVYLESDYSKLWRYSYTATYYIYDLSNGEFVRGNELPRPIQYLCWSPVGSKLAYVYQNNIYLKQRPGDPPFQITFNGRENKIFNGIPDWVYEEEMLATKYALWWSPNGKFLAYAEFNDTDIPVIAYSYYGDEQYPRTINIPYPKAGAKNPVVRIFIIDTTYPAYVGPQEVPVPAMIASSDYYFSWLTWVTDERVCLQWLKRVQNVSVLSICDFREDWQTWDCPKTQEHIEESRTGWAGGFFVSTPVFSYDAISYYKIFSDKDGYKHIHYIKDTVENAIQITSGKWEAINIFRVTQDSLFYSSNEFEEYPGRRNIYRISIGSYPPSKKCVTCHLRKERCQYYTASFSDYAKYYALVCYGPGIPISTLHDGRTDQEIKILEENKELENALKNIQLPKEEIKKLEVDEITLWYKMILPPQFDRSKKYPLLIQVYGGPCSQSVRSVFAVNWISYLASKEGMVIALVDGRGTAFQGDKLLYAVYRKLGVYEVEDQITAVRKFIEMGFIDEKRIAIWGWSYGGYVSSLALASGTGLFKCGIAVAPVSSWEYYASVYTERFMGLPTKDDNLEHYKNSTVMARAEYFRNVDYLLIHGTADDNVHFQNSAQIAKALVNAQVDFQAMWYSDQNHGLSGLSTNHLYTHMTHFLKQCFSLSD
The assay is described as follows: Competitive FACS binding assay. The settings on record: pIC50 Category (FACS), competition with 3 nM Cy5-labeled compound, 4° C., 1 hour. As for the experimental part:
Cells were analyzed in an Attune NxT flow cytometer. […]

The target of assay [2] is T2, Human recombinant FAP (Homo sapiens, UniProt Q12884).
T2 sequence (Q12884 1-760): T1 sequence (Q12884 1-760)
The assay is described as follows: Surface plasmon resonance (Biacore) assay. The class given is binding.

Assay [3] has as its target T2, Human recombinant FAP. The assay is described as follows: FRET-based FAP protease activity assay. The format is biochemical. Set-up: purchased R&D systems 3715-SE. As to conditions: pIC50 Category (Activity), FRET substrate, 37° C.

Numbered stars: 1 amine (or outer) side, 2 acyl side, 3 side chain; on linkers, the order of the positions; unused ones are H or OH. Bridge positions count the residues as written; N and C are the ends. Square brackets hold non-standard residues; d marks the D form. Peptide text beside a SMILES is read from it. * marks the point of attachment. X19 = NC(=O)[C@H](CCCCNC(=O)CN1CCN(CC(=O)O)CCN(CC(=O)O)CCN(CC(=O)O)CC1)NC(=O)CCC(=O)NCCCOCCOCCNCCCN*; TBMB(SCH2CH2NH-DOTA) = O=C(O)CN1CCN(CC(=O)O)CCN(CC(=O)NCCSCc2cc(C[*:1])cc(C[*:2])c2)CCN(CC(=O)O)CC1; X3 = NC(=O)[C@H](CCCCNC(=O)CN1CCN(CC(=O)O)CCN(CC(=O)O)CCN(CC(=O)O)CC1)NC(=O)CCC(=O)NCCCOCCOCCOCCCN*; mXylylene = c1cc(C[*:1])cc(C[*:2])c1; 3Amb = NCc1cccc(C(=O)O)c1; 4Amb = NCc1ccc(C(=O)O)cc1; Hexanoyl = CCCCCC(=O)*; GABA = NCCCC(=O)O

What is called IC50 is the point on the concentration scale where inhibition reaches its midpoint. A word on the Kd: it is the concentration at which binding is half-saturated. For the compound `CCCCCC(=O)N[C@H]1CSCc2cccc(c2)CSC[C@@H](C(=O)N[C@@H](CC(=O)O)C(N)=O)NC(=O)[C@H](Cc2ccccc2)NC(=O)[C@H](CCC(=O)O)NC(=O)[C@H]([C@@H](C)O)NC(=O)[C@@H]2CCCN2C(=O)[C@@H]2CCCN2C1=O` [3BP-3288, Hex-[Cys(3MeBn)-Pro-Pro-Thr-Glu-Phe-Cys]-Asp-NH2] (Hexanoyl-CPPTEFCD-NH2; linker 1-7 via mXylylene), the IC50 in assay [1] (WI-38 fibroblasts) and in assay [3] (recombinant human FAP) was < 0.01 µM each time. In assay [2], the Kd was < 0.01 µM.

Regarding `CCCCCC(=O)N[C@H]1CSCc2cccc(c2)CSC[C@@H](C(=O)N[C@@H](CC(=O)O)C(=O)NCCCC(=O)N[C@@H](CCCNC(=N)N)C(N)=O)NC(=O)[C@H](Cc2ccccc2)NC(=O)[C@H](CCC(=O)O)NC(=O)[C@H]([C@@H](C)O)NC(=O)[C@@H]2CCCN2C(=O)[C@@H]2CCCN2C1=O` [3BP-3300, Hex-[Cys(3MeBn)-Pro-Pro-Thr-Glu-Phe-Cys]-Asp-Gab-Arg-NH2] (Hexanoyl-CPPTEFCD[GABA]R-NH2; linker 1-7 via mXylylene), the 50% inhibitory concentration (IC50) in assay [1] (WI-38 fibroblasts) and in assay [3] (recombinant human FAP) was < 0.01 µM each time. Moreover, the equilibrium dissociation constant (Kd) in assay [2] was < 0.01 µM.

As for `CCCCCC(=O)N[C@H]1CSCc2cccc(c2)CSC[C@@H](C(=O)N[C@@H](CC(=O)O)C(=O)NCc2ccc(C(=O)N[C@@H](CCCNC(=N)N)C(N)=O)cc2)NC(=O)[C@H](Cc2ccccc2)NC(=O)[C@H](CCC(=O)O)NC(=O)[C@H]([C@@H](C)O)NC(=O)[C@@H]2CCCN2C(=O)[C@@H]2CCCN2C1=O` [3BP-3301, Hex-[Cys(3MeBn)-Pro-Pro-Thr-Glu-Phe-Cys]-Asp-Pamb-Arg-NH2] (Hexanoyl-CPPTEFCD[4Amb]R-NH2; linker 1-7 via mXylylene), the concentration for half-maximal inhibition (IC50) in assay [1] (WI-38 fibroblasts) and in assay [3] (recombinant human FAP) was < 0.01 µM in each case. Besides, the Kd in assay [2] was < 0.01 µM.

With `CCCCCC(=O)N[C@H]1CSCc2cccc(c2)CSC[C@@H](C(=O)N[C@@H](CC(=O)O)C(=O)NCc2cccc(C(=O)N[C@@H](CCCNC(=N)N)C(N)=O)c2)NC(=O)[C@H](Cc2ccccc2)NC(=O)[C@H](CCC(=O)O)NC(=O)[C@H]([C@@H](C)O)NC(=O)[C@@H]2CCCN2C(=O)[C@@H]2CCCN2C1=O` [3BP-3324, Hex-[Cys(3MeBn)-Pro-Pro-Thr-Glu-Phe-Cys]-Asp-Mamb-Arg-NH2] (Hexanoyl-CPPTEFCD[3Amb]R-NH2; linker 1-7 via mXylylene), the concentration for half-maximal inhibition (IC50) in assay [1] (WI-38 fibroblasts) and in assay [3] (recombinant human FAP) was < 0.01 µM in each case. The dissociation constant (Kd) in assay [2] was < 0.01 µM.

As to `CCCCCC(=O)N[C@H]1CSCc2cccc(c2)CSC[C@@H](C(=O)N[C@@H](CC(=O)O)C(=O)NCCCNCCOCCOCCCNC(=O)CCC(=O)N[C@@H](CCCCNC(=O)CN2CCN(CC(=O)O)CCN(CC(=O)O)CCN(CC(=O)O)CC2)C(N)=O)NC(=O)[C@H](Cc2ccccc2)NC(=O)[C@H](CCC(N)=O)NC(=O)[C@H]([C@@H](C)O)NC(=O)[C@@H]2CCCN2C(=O)[C@@H]2CCCN2C1=O` [3BP-3395, Hex-[Cys(3MeBn)-Pro-Pro-Thr-Gln-Phe-Cys]-Asp-Ttds-Lys(DOTA)-NH2] (Hexanoyl-CPPTQFCD-X19; linker 1-7 via mXylylene), the 50% inhibitory concentration (IC50) in assay [1] (WI-38 fibroblasts) and in assay [3] (recombinant human FAP) was < 0.01 µM throughout. Besides, the equilibrium dissociation constant (Kd) in assay [2] is < 0.01 µM.

On to `CCCCCC(=O)N[C@H]1CSCc2cc(CSCCNC(=O)CCP(=O)(O)CN3CCN(CP(=O)(O)CO)CCN(CP(=O)(O)CO)CC3)cc(c2)CSC[C@@H](C(=O)O)NC(=O)[C@H](Cc2ccccc2)NC(=O)[C@H](CCC(N)=O)NC(=O)[C@H]([C@@H](C)O)NC(=O)[C@@H]2CCCN2C(=O)[C@@H]2CCCN2C1=O` [3BP-4380, Hex-[Cys-(tMeBn(NOPO-AET))-Pro-Pro-Thr-Gln-Phe-Cys]-OH], for which the 50% inhibitory concentration (IC50) in assay [1] and in assay [3] was < 0.01 µM throughout.

For the compound `CCCCCC(=O)N[C@H]1CSCc2cc(CSCCNC(=O)CCc3ccc(O)c(CN(CCN(CC(=O)O)Cc4cc(CCC(=O)O)ccc4O)CC(=O)O)c3)cc(c2)CSC[C@@H](C(=O)O)NC(=O)[C@H](Cc2ccccc2)NC(=O)[C@H](CCC(N)=O)NC(=O)[C@H]([C@@H](C)O)NC(=O)[C@@H]2CCCN2C(=O)[C@@H]2CCCN2C1=O` [3BP-4381, Hex-[Cys-(tMeBn(HBED-AET))-Pro-Pro-Thr-Gln-Phe-Cys]-OH], the IC50 in assay [1] and in assay [3] was 0.01 to 0.0794 µM throughout.

With `CCCCCC(=O)N[C@H]1CSCc2cc(CSCCNC(=O)CCCCC3(N(C)CC(=O)O)CN(CC(=O)O)CCN(CC(=O)O)C3)cc(c2)CSC[C@@H](C(=O)O)NC(=O)[C@H](Cc2ccccc2)NC(=O)[C@H](CCC(N)=O)NC(=O)[C@H]([C@@H](C)O)NC(=O)[C@@H]2CCCN2C(=O)[C@@H]2CCCN2C1=O` [3BP-4382, Hex-[Cys-(tMeBn(DATA-AET))-Pro-Pro-Thr-Gln-Phe-Cys]-OH], the IC50 in assay [1] and in assay [3] was 0.01 to 0.0794 µM each time.

As for `CCCCCC(=O)N[C@H]1CSCc2cc(CSCCNC(=O)CCC(=O)NCCCOCCOCCOCCCNC(=O)CCP(=O)(O)CN3CCN(CP(=O)(O)CO)CCN(CP(=O)(O)CO)CC3)cc(c2)CSC[C@@H](C(=O)O)NC(=O)[C@H](Cc2ccccc2)NC(=O)[C@H](CCC(N)=O)NC(=O)[C@H]([C@@H](C)O)NC(=O)[C@@H]2CCCN2C(=O)[C@@H]2CCCN2C1=O` [3BP-4385, Hex-[Cys(tMeBn(NOPO-Ttds-AET))-Pro-Pro-Thr-Gln-Phe-Cys]-OH], the half-inhibitory concentration (IC50) in assay [1] and in assay [3] was 0.01 to 0.0794 µM in each case.

For `CCCC(NC(=O)CCC(=O)NCCCOCCOCCOCCCNC(=O)CN1CCN(CC(=O)O)CCN(CC(=O)O)CCN(CC(=O)O)CC1)C(=O)N[C@H]1CSCc2cc(CSCCNC(=O)CN3CCN(CC(=O)O)CCN(CC(=O)O)CCN(CC(=O)O)CC3)cc(c2)CSC[C@@H](C(=O)O)NC(=O)[C@H](Cc2ccccc2)NC(=O)[C@H](CCC(N)=O)NC(=O)[C@H]([C@@H](C)O)NC(=O)[C@@H]2CCCN2C(=O)[C@@H]2CCCN2C1=O` (stereo partly drawn) [3BP-4386, DOTA-Ttds-Nle-[Cys(tMeBn(DOTA-AET))-Pro-Pro-Thr-Gln-Phe-Cys]-OH], the 50% inhibitory concentration (IC50) in assay [1] and in assay [3] was 0.01 to 0.0794 µM in each case.

Regarding `CCCCCC(=O)N[C@H]1CSCc2cc(CSCCNC(=O)CN3CCN(CC(=O)O)CCN(CC(=O)O)CCN(CC(=O)O)CC3)cc(c2)CSC[C@@H](C(=O)N[C@@H](CC(=O)O)C(=O)NCCCOCCOCCOCCCNC(=O)CCC(=O)N[C@@H](CCCCNC(=O)CN2CCN(CC(=O)O)CCN(CC(=O)O)CCN(CC(=O)O)CC2)C(N)=O)NC(=O)[C@H](Cc2ccccc2)NC(=O)[C@H](CCC(N)=O)NC(=O)[C@H]([C@@H](C)O)NC(=O)[C@@H]2CCCN2C(=O)[C@@H]2CCCN2C1=O` [3BP-4391, Hex-[Cys(tMeBn(DOTA-AET))-Pro-Pro-Thr-Gln-Phe-Cys]-Asp-Ttds-Lys(DOTA)-NH2] (Hexanoyl-CPPTQFCD-X3; linker 1-7 via TBMB(SCH2CH2NH-DOTA)), the IC50 in assay [1] and in assay [3] was < 0.01 µM throughout.

With `CCCC(NC(=O)CCC(=O)NCCCOCCOCCOCCCNC(=O)CN1CCN(CC(=O)O)CCN(CC(=O)O)CCN(CC(=O)O)CC1)C(=O)N[C@H]1CSCc2cc(CSCCNC(=O)CN3CCN(CC(=O)O)CCN(CC(=O)O)CCN(CC(=O)O)CC3)cc(c2)CSC[C@@H](C(=O)N[C@@H](CC(=O)O)C(=O)NCCCOCCOCCOCCCNC(=O)CCC(=O)N[C@@H](CCCCNC(=O)CN2CCN(CC(=O)O)CCN(CC(=O)O)CCN(CC(=O)O)CC2)C(N)=O)NC(=O)[C@H](Cc2ccccc2)NC(=O)[C@H](CCC(N)=O)NC(=O)[C@H]([C@@H](C)O)NC(=O)[C@@H]2CCCN2C(=O)[C@@H]2CCCN2C1=O` (stereo partly drawn) [3BP-4392, DOTA-Ttds-Nle-[Cys(tMeBn(DOTA-AET))-Pro-Pro-Thr-Gln-Phe-Cys]-Asp-Ttds-Lys(DOTA)-NH2], the IC50 in assay [1] and in assay [3] was 0.01 to 0.0794 µM throughout.

Consider `CCCC(NC(=O)CCC(=O)NCCCOCCOCCOCCCNC(=O)CN1CCN(CC(=O)O)CCN(CC(=O)O)CCN(CC(=O)O)CC1)C(=O)N[C@H]1CSCc2cccc(c2)CSC[C@@H](C(=O)N[C@@H](CC(=O)O)C(=O)NCCCOCCOCCOCCCNC(=O)CCC(=O)N[C@@H](CCCCNC(=O)CN2CCN(CC(=O)O)CCN(CC(=O)O)CCN(CC(=O)O)CC2)C(N)=O)NC(=O)[C@H](Cc2ccccc2)NC(=O)[C@H](CCC(N)=O)NC(=O)[C@H]([C@@H](C)O)NC(=O)[C@@H]2CCCN2C(=O)[C@@H]2CCCN2C1=O` (stereo partly drawn) [3BP-4393, DOTA-Ttds-Nle-[Cys(3MeBn)-Pro-Pro-Thr-Gln-Phe-Cys]-Asp-Ttds-Lys(DOTA)-NH2], for which the IC50 in assay [1] and in assay [3] was < 0.01 µM in each case.
